Where “and” joins values, the source holds several entries; their conditions need not be identical. Identical values can stand only once. Like-named read-outs stand apart in the source and are kept apart here.
What was measured:
[1] = system: Corn; experiment: Greenhouse test Procedure VII: biocide and antidote in furrow, herbicide POE (Examples 39-42, 48-50, 56-58; Tables 38-41, 47-49, 55-57); assay type: in vivo; conditions: in-furrow antidote; COUNTER 15G + sulfonamide herbicides; Table 41
How it was run: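 Corn seed was planted in greenhouse pots, with COUNTER 15G insecticide plus antidote granules applied in-furrow (e.g. 1.1 + 0.37 mg a.i./cm, or 227 g/305 m with acetone-applied safeners). About five days later, herbicides in water with 0.25% v/v X-77 were track-sprayed post-emergence at 187 L/ha. Plant response was scored eight days afterward, with two to four replicates.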

[2] = system: Corn; experiment: Multi-crop greenhouse test, herbicide POE (Examples 62-64; Tables 61-63); assay type: in vivo; conditions: COUNTER 15G and BEACON; Example 62
Description: Tests according to this invention in various crops indicate widespread application of the invention. In Examples 62-66 below are described tests with a variety of herbicides contacted with COUNTER® 15G in the presence and absence of MON-7400 (Antidote No. 12); MON-13900 (No. 1); MON-4660 (No. 16) and flurazole (No. 16). Those tests were conducted according to Procedures IV or V described above and illustrated further in other foregoing examples. Plants used in all tests were, for crops (as abbreviated in parentheses); cotton (COTT); soybean (SOBE); CORN, grain sorghum (GRSO); wheat (WHEA) and RICE, and the weeds giant foxtail (GIFT) and velvetleaf (VELE). The data in the tables below represent averages of two replications.
In this test the crops and weeds were planted 1.3 cm deep in 13.7 cm X 27.7 cm pans containing Dupo silt loam soil. The test safeners were applied in acetone solution and COUNTER 15G as dry granules to soil cover layers and incorporated by shaking in a bag. Treated cover layers were placed on seeded pans which were transferred to greenhouse benches and subirrigated. Herbicide was applied POE six (6) days after PPI initiation and observations of plant injury made ten (10) days later; results are shown in Table 61. The herbicide used in this example was BEACON (No. 8).
The test procedure described in Example 62 was repeated using ACCENT® (Herbicide No. 7) as the herbicide; the biocide and safeners were the same.

[3] = system: Corn; experiment: Greenhouse test Procedure VI: biocide and antidote in furrow, herbicide PPI in cover layer (Examples 43-47, 59-61; Tables 42-46, 58-60); assay type: in vivo; conditions: COUNTER 15G/PURSUIT interaction; Example 47
From the text: This procedure describes interaction among herbicide, biocide and antidote when the herbicide is incorporated in a soil cover layer and the biocide and the antidote are applied in a soil furrow containing crop seed before emergence of the crop. The soil and seeding depth were described in Procedure IV. A first container was designated as an untreated control, a second container was designated as a herbicide control, a third container was designated as a herbicide + biocide control and a fourth container as a herbicide + biocide + antidote test container. The biocide and antidote were formulated as granules. The biocide was applied to the soil furrows of the third and fourth containers at an application rate of 1.1 mg of active compound per cm of row. The antidote was applied to the soil furrow of the fourth container at an application rate of 0.37 mg of active compound per cm of row. A measured amount of the herbicide dispersed or dissolved in acetone was applied to a measured quantity of soil. The quantity of soil treated with the herbicide was thoroughly mixed to incorporate the herbicide. Samples of this soil were used to cover the seed beds of the second, third and fourth containers. For each test series, the seed bed of the first container was likewise covered by a soil layer not treated with herbicide and without biocide or antidote in the soil furrow.
The containers were then placed on a bench in a greenhouse. Watering was by subirrigation plus overhead irrigation after the plants emerged. All treatments were run in duplicate. Plant response was observed according to Procedure IV. Variations in this procedure will be noted in the examples.
In continuing tests to evaluate the variations of this invention, a series of tests were conducted to determine the efficacy of the above safeners in Examples 39-42 to alleviate corn injury induced by the interaction of various additional commercial sulfonylurea herbicides with COUNTER 15G insecticide. In this example, the tests were conducted according to Procedure VI above. In modifications of that procedure, herbicides were applied to soil samples as acetone/water suspensions, incorporated by shaking in a closed container, with subsamples used to cover furrow-treated 10.2 cm pots. Pots were subirrigated followed by overhead misting on days 6-10.
This example was designed to test the safening effect of those above safeners used in this test series to relieve corn injury by negative synergism induced by interaction of COUNTER 15G and three imidazolinone herbicides, i.e., imazaquin and imazapyr (used in the POE tests in Example 41) and AC 263222 (a.i. in CADRE® herbicide). As differing from the tests in Example 41, this test was a PPI test according to Procedure VI described above. Observation of test results (Table 43) were taken thirteen 913) days after in-furrow PPI preparation.
This example describes PPI tests to evaluate said test safeners in this series with analogs of the sulfonamide herbicides tested under POE herbicide application procedures described in Example 42. In these tests, conducted according to Procedure VI described above, Herbicide Nos. 20, 22 and 24 were applied PPI with the insecticide and antidote. Observations of tests results were made thirteen days after PPI initiation.
An additional three (3) sulfonamide herbicide analogs were tested simultaneously and under the same conditions described in Example 45.
Another test of this invention involved the safening effects of the safeners in this series against negative synergy inducted by the interaction of COUNTER 15G and a sulfonylurea herbicide (OUST®), Herbicide No. 13, and PURSUIT, an imidazolinone herbicide, No. 6. Test conditions were the same as those in Examples 43-46. Other procedures for applying herbicidal formulations are as described in Example 42. […]

[4] = system: Velvetleaf (VELE); experiment: whole plant or invertebrate; assay type: in vivo, Abutilon theophrasti; conditions: for inhibition at 140 g/ha / inhibition at 20 g/ha: Abutilon theophrasti, iv; for inhibition at 20 g/ha: XRD-498 0.02 Kg/Ha alone
[5] = system: SJCA; experiment: Greenhouse test Procedure IV: herbicide, biocide and antidote PPI, weed SJCA (Examples 53-55; Tables 52-54); assay type: in vivo; conditions: Herbicide No. 21 0.14 Kg/Ha, all PPI
From the text: The test in this example paralleled that in Example 51, except the procedure was according to Procedure IV above and the herbicides used were No. 1 (MON-12000); No. 21 (XRD-498) and, again, No. 18 (PURSUIT); the biocide was, again, MOCAP®. Observations were taken thirteen (13) days after PPI treatment with biocide and antidote.
This test was identical to that in Example 52, except for use of a different biocide, DIAZINON (Biocide No. 5, a nematicide and soil insecticide).
This test was also identical to that in the preceding two examples, except that the biocide was malathion (No. 7, an insecticide).
This test was identical to the preceding ones, except the biocide was DPX-43898 (No. 6, active ingredient in FORTRESS® insecticide, a soil insecticide). Also, the observation time was fourteen (14) days after PPI initiation.

[6] = system: Giant foxtail (GIFT); experiment: whole plant or invertebrate; assay type: in vivo; conditions: for inhibition at 140 g/ha / inhibition at 20 g/ha: Setaria faberi, iv; for inhibition at 20 g/ha: XRD-498 0.02 Kg/Ha alone
[7] = system: Corn; experiment: whole plant or invertebrate; conditions: Zea mays, iv; for inhibition at 20 g/ha: read-out: % Inhibition Corn, XRD-498 0.02 Kg/Ha alone
[8] = system: Corn
[9] = 312 h, Herb. No. 21 0.14 kg/Ha alone, PPI, 13 days after planting
[10] = 312 h, Table 51, Herbicide No. 21 0.14 Kg/Ha, where applied Biocide No. 8 8.96 kg/Ha and antidote 4.48 Kg/Ha, all PPI, observed 13 days after treatment
[11] = 312 h, PPI, 13 days after PPI (Table 31)
[12] = 336 h, PPI, 14 days after PPI (Table 34)
[13] = Herbicide No. 21 0.0175 Kg/Ha PPI alone, Table 23
[14] = Herbicide No. 21 0.0175 Kg/Ha PPI alone, Table 24
[15] = Herbicide No. 21 0.0175 Kg/Ha PPI alone, Table 25
[16] = Herbicide No. 21 0.0175 Kg/Ha PPI alone, Table 26
[17] = XRD-498 0.02 Kg/Ha PPI alone, 13 days after treatment
[18] = […], PPI, 14 days after PPI (Table 34)
[19] = Herb. […], PPI, 13 days after planting
[20] = […], PPI, 13 days after PPI (Table 31)

## N#CCOc1ccc(Cl)c2cccnc12 [Antidote No. 33, Acetonitrile, [(5-chloro-8-quinolinyl)oxy]-]
[1]
  corn injury: significantly reduced
[2]
  corn injury: effectively reduced
[3]
  safening: good activity

## Cc1ccn2nc(S(=O)(=O)Nc3c(F)cccc3F)nc2n1 [Herbicide No. 21, 5-Methyl-N-(2,6-difluorophenyl)-1,2,4-triazolo[1,5-a]pyrimidine-2-sulfonamide, reference compound]
[4]; [9]
  inhibition at 140 g/ha: 75%
[4]; [10]
  inhibition at 140 g/ha: 80%
[4]; 312 h, Table 52, Herbicide No. 21 0.14 Kg/Ha, where applied Biocide No. 5 8.96 kg/Ha and antidote 4.48 Kg/Ha, all PPI, observed 13 days after treatment
  inhibition at 140 g/ha: 80%
[4]; 312 h, Table 53, Herbicide No. 21 0.14 Kg/Ha, where applied Biocide No. 7 8.96 kg/Ha and antidote 4.48 Kg/Ha, all PPI, observed 13 days after treatment
  inhibition at 140 g/ha: 85%
[4]; [11]
  inhibition at 20 g/ha: 80%
[4]; 336 h, Table 54, Herbicide No. 21 0.14 Kg/Ha, where applied Biocide No. 6 8.96 kg/Ha and antidote 4.48 Kg/Ha, all PPI, observed 14 days after PPI initiation
  inhibition at 140 g/ha: 85%
[4]; [12]
  inhibition at 20 g/ha: 80%
[4]; [13]
  % Inhibition VELE: 60%
[4]; [14]
  % Inhibition VELE: 45%
[4]; [15]
  % Inhibition VELE: 60%
[4]; [16]
  % Inhibition VELE: 50%
[4]; [17]
  % Inhibition VELE: 90%
[4]; [18]
  % Inhibition VELE: 90%
[4]; in vivo
  % Inhibition VELE: 70% and 75%
[4]; in vivo, listed as XRD-498
  % Inhibition VELE: 90%
[5]; 312 h, Table 52, where applied Biocide No. 5 8.96 kg/Ha and antidote 4.48 Kg/Ha, observed 13 days after treatment
  inhibition at 140 g/ha: 70%
[5]; 312 h, Table 53, where applied Biocide No. 7 8.96 kg/Ha and antidote 4.48 Kg/Ha, observed 13 days after treatment
  inhibition at 140 g/ha: 75%
[5]; 336 h, Table 54, where applied Biocide No. 6 8.96 kg/Ha and antidote 4.48 Kg/Ha, observed 14 days after PPI initiation
  inhibition at 140 g/ha: 60%
[6]; [19]
  % Inhibition GIFT: 95%
[6]; [13]
  % Inhibition GIFT: 0%
[6]; [14]
  % Inhibition GIFT: 0%
[6]; [15]
  % Inhibition GIFT: 0%
[6]; [16]
  % Inhibition GIFT: 0%
[6]; [9]
  inhibition at 140 g/ha: 40%
[6]; [10]
  inhibition at 140 g/ha: 70%
[6]; [11]
  inhibition at 20 g/ha: 30%
[6]; [12]
  inhibition at 20 g/ha: 35%
[6]; [17]
  % Inhibition GIFT: 25%
[6]; [20]
  % Inhibition GIFT: 75%
[6]; [18]
  % Inhibition GIFT: 65%
[6]; in vivo
  % Inhibition GIFT: 60% and 75% and 90%
[7]; 312 h, read-out: % Inhibition Corn, Herb. No. 21 0.14 kg/Ha alone, PPI, 13 days after planting
  inhibition at 140 g/ha: 5%
[7]; 312 h, read-out: % Inhibition Corn, Table 51, Herbicide No. 21 0.14 Kg/Ha, where applied Biocide No. 8 8.96 kg/Ha and antidote 4.48 Kg/Ha, all PPI, observed 13 days after treatment
  inhibition at 140 g/ha: 10%
[7]; 312 h, read-out: % Inhibition Corn, Table 52, Herbicide No. 21 0.14 Kg/Ha, where applied Biocide No. 5 8.96 kg/Ha and antidote 4.48 Kg/Ha, all PPI, observed 13 days after treatment
  inhibition at 140 g/ha: 5%
[7]; 312 h, read-out: % Inhibition Corn, Table 53, Herbicide No. 21 0.14 Kg/Ha, where applied Biocide No. 7 8.96 kg/Ha and antidote 4.48 Kg/Ha, all PPI, observed 13 days after treatment
  inhibition at 140 g/ha: 10%
[7]; [11]
  inhibition at 20 g/ha: 5%
[7]; 336 h, read-out: % Inhibition Corn, Table 54, Herbicide No. 21 0.14 Kg/Ha, where applied Biocide No. 6 8.96 kg/Ha and antidote 4.48 Kg/Ha, all PPI, observed 14 days after PPI initiation
  inhibition at 140 g/ha: 10%
[7]; [12]
  inhibition at 20 g/ha: 20%
[8]; [19]
  % Inhibition Corn: 75%
[8]; [13]
  % Inhibition Corn: 0%
[8]; [14]
  % Inhibition Corn: 0%
[8]; [15]
  % Inhibition Corn: 0%
[8]; [16]
  % Inhibition Corn: 5%
[8]; [17]
  % Inhibition Corn: 15%
[8]; XRD-498 with OP insecticides, Examples 24-27
  corn injury: 30-55%
[8]; XRD-498 without insecticide, Examples 24-27
  corn injury: 0-5%
[8]; [20]
  % Inhibition Corn: 70%
[8]; [18]
  % Inhibition Corn: 75%
[8]; herbicide used in conjunction with COUNTER, Tables 29-37
  corn injury: 55-70%
[8]; herbicide without COUNTER, Tables 29-37
  corn injury: 0-5%
[8]; in vivo
  % Inhibition Corn: 50% and 30% and 55%
[8]; in vivo, listed as XRD-498
  % Inhibition Corn: 75%

From patent EP0565593B1, “REDUCING PESTICIDAL INTERACTIONS IN CROPS” (priority 1990, dated 1992)
